From PMC8910560, “Screening of Novel Bioactive Peptides from Goat Casein: In Silico to In Vitro Validation” (International Journal of Molecular Sciences, 2022)
Ends that are not written are not given here.

tested on: ACE; experiment: not given; conditions: antihypertensive oligopeptides encoded in human β-casein; cited from earlier work

Substance | IC50 (ACE)
LPQNILP [antihypertensive oligopeptide encoded in the human β-casein] | 36.5 µg/mL
NPPHQIYP [antihypertensive oligopeptide encoded in the human β-casein] | 35.7 µg/mL
PAVVLP | 26.8 µg/mL
PHQIYP | 22.6 µg/mL
TVYTKGRVMP [antihypertensive oligopeptide encoded in the human β-casein] | 43.7 µg/mL
VLPIP | 16.7 µg/mL
VLPYP | 21.1 µg/mL
VMP | 10.0 µg/mL

same assay, conditions: antihypertensive oligopeptides encoded in various β-caseins; cited from earlier work

Substance | IC50 (ACE)
FAQTQSLVYP [antihypertensive oligopeptide encoded in various β-caseins] | 28.8 µg/mL
HPFAQTQQSLVYP [antihypertensive oligopeptide encoded in various β-caseins] | 36.1 µg/mL
SLVYP | 23.7 µg/mL

same assay, conditions: whey-derived peptides; ref Tavares et al. (2011) [14]; cited from earlier work

Substance | IC50 (ACE)
DAQSAPLRVY | 12.2 µg/mL
DKVGINYW | 25.4 µg/mL
KGYGGVSLPEW | 0.7 µg/mL

tested on: not given; experiment: not given; set-up: method as in Contreras et al. (2013) [21]; conditions: after the digestion process; ref Contreras et al. (2013) [21]; cited from earlier work

Substance | antioxidant capacity | change of antioxidant activity
AYFYPEL [casein-derived peptide studied by Contreras et al. (2013)] | 4.160 ± 0.623 µmol TE µmol^−1 peptide | –
RYLGY | – | reduced
YQKFPQY [casein-derived peptide studied by Contreras et al. (2013)] | – | reduced

same assay, conditions: before digestion; ref Contreras et al. (2013) [21]; cited from earlier work

Substance | antioxidant capacity
AYFYPEL [casein-derived peptide studied by Contreras et al. (2013)] | 3.216 ± 0.114 µmol TE µmol^−1 peptide

target: T1, angiotensin-I converting enzyme (ACE) (Oryctolagus cuniculus, UniProt P12822); experiment: ACE inhibitory activity (iACE), fluorometric assay; type: biochemical; conditions: Digested (simulated gastrointestinal digestion, 50 µg mL^−1 in intestinal compartment)
T1 construct: purchased Sigma-Aldrich
T1 sequence (P12822 34-1310): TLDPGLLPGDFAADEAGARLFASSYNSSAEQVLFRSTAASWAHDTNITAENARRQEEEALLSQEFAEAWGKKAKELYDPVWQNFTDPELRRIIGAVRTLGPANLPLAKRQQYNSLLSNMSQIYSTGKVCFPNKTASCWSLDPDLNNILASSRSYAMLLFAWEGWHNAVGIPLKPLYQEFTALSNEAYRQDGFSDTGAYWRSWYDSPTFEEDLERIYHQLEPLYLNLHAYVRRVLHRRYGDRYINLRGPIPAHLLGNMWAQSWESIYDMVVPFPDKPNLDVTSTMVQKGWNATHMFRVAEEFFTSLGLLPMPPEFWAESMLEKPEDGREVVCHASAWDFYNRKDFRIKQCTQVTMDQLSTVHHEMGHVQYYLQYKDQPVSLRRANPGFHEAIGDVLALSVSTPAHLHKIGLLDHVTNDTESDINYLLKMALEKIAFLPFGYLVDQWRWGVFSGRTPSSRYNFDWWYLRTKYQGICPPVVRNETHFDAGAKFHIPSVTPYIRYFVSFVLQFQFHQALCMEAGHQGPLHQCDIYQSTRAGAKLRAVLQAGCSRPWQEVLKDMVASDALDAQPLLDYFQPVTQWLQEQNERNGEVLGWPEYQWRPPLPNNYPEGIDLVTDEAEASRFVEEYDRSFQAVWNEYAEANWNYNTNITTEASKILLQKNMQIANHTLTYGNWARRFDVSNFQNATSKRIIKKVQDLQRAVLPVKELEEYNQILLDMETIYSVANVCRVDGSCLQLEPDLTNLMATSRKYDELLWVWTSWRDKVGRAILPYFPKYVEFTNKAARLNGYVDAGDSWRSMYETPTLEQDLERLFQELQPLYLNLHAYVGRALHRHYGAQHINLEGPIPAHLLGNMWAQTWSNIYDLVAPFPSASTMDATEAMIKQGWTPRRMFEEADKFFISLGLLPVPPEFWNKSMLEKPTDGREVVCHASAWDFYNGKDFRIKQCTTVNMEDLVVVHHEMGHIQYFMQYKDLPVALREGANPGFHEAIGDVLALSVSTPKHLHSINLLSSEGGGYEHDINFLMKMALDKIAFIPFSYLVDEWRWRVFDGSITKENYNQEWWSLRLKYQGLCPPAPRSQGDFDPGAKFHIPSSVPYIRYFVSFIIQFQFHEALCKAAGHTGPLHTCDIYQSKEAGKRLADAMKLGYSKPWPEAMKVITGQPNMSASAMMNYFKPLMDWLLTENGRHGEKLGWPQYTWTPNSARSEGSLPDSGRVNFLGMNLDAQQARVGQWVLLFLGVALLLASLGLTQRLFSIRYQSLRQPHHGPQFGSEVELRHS
Procedure: The ACE inhibitory activity was carried out using the fluorometric assay described by Coscueta, Brassesco, and Pintado (2021). The iACE of each sample (raw peptide and digested) was evaluated in duplicate and expressed as the concentration capable of inhibiting 50% of the enzymatic activity (IC50). To calculate the IC50 values, non-linear modeling was used, and the results were expressed as μg mL^−1 to inhibit 50% of the enzymatic activity.
Simulated gastrointestinal digestion was performed according to the method described by Madureira et al. (2011). Briefly, mouth digestion was mimicked by introducing the peptide sequence (2.5 mg/mL) into 15 mL of a 1 mM CaCl2 solution of 100 U mL^−1 α-amylase, under constant stirring (200 rpm) for 2 min at 37 °C, simulating masticatory movements. A 1 M NaHCO3 solution was used to adjust the pH of artificial saliva to 6.9. Subsequently, a pepsin solution, 25 mg/mL, was added with a ratio of 0.05 mL/mL of a sample at pH 2.0 (simulated gastric solution, stomach) following incubation for 2 h, 37 °C at 130 rpm orbital agitation for the gastric phase. Finally, intestinal digestion and absorption were simulated by adjusting pH values to […] using a 1 M NaHCO3 solution and adding a solution of bile salts and pancreatin to the digest.

IC50 | Substance
> 30.6 µM | QSLVYPFTGPIPNSL [QSLVYPFTGPIPNSL]
> 56.7 µM | SWMHQPP [SWMHQPP]
> 47.7 µM | YPYQGPIVL [YPYQGPIVL]

same assay, conditions: Raw peptide; mean ± SD

IC50 | Substance
> 3680 µM | HQPPQPL [HQPPQPL]
> 3170 µM | MHQPPQPL [MHQPPQPL]
> 1840 µM | QSLVYPFTGPIPNSL [QSLVYPFTGPIPNSL]
253 µM | SWMHQPP [SWMHQPP]
1060 µM | YPYQGPIVL [YPYQGPIVL]
